Experimental data taken from patent US11033598B2, “Pharmaceutical composition for preventing or treating hearing loss comprising oat extract as an active ingredient” (priority 2016, dated 2021).

Key:
HEI-OC1 cell line = assay: DCF-DA assay of ROS generation in gentamicin hearing loss model cells; conditions: for ROS generation rate (DCF-DA): Table 2; for increase rate of the DCF fluorescence intensity: 24 hrs; for increase rate of the DCF fluorescence intensity / protection of hearing loss (DCF-DA test) as compared to gentamicin only: HEI-OC1; for protection of hearing loss (DCF-DA test) as compared to gentamicin only: 0.1 μg/ml to 2 μg/ml, 24 hours before gentamicin 4 μM
[1] = system: hearing loss mouse model (noise-induced hearing loss); assay: Hearing threshold by auditory brainstem response (ABR) after exposure to noise; format: in vivo; conditions: mice; for effect of preserving the hearing threshold (ABR, tone burst): 4 kHz, 8 kHz, 16 kHz TB
Procedure: In order to verify a hearing preservation effect of avenanthramide before exposure to noise, an experiment for measuring a hearing threshold was performed using an auditory brainstem response. A method of measuring the auditory brainstem response (ABR) is a method of evaluating a response to a sound by measuring electric energy when a sound stimulus is transmitted as an electrical signal in the auditory nerve. When the sound reaches the auditory nerve through the outer ear, the middle ear, and the cochlea, the response reflects all states of the outer ear, the middle ear, and the cochlea and reflects the actual sound energy to which the sound energy reaches the brain. The hearing threshold refers to a minimum sensory point of sound that is barely audible, and in a normal mouse, the response is observed even on the small sound having the average of 20 to 30 dB.
Mice to which avenanthramide was administered and untreated control mice were divided into four groups of eight mice, respectively, and evaluated. The noise was exposed with a pure tone of 90 dB of 8 KHz for 6 hours and 10 μg/kg of avenanthramide was intraperitoneally administered to mice before 6 hours and 24 hours of exposure to noise. During the auditory brainstem response test, the stimulus sound was evaluated by lowering the sound gradually from 90 dB by 5 dB with a click sound of a broadband stimulus sound, and the smallest sound of the response was set as the threshold. In addition, the hearing threshold was measured with a stimulus sound of 4 kHz, 8 kHz, 16 kHz, 24 kHz, and 32 kHz tone burst (TB), and in order to verify a hearing preservation effect of avenanthramide, the experiment for measuring the hearing threshold was performed in the same manner as above. The result was illustrated in FIG. 7.
(§1) The noise was exposed with a pure tone of 90 dB 8 KHz for 6 hours and 10 μg/kg of avenanthramide was intraperitoneally administered to mice before 6 hours and 24 hours of exposure to noise. Then, the ABR test was performed after two weeks of noise induction in the same manner as Experimental Example 1-1 and the result was illustrated in FIG. 8.
as §1, with “95” for “90”, “9.” for “8.”

## gentamicin [reference compound]
HEI-OC1 cell line; GM 3 μM alone
  ROS generation rate (DCF-DA): 24.39
HEI-OC1 cell line; GM 3 μM alone, Table 3
  increase rate of DCF fluorescent intensity: 56.06
HEI-OC1 cell line; GM 4 μM only, Table 4
  increase rate of DCF fluorescent intensity: 11.51
HEI-OC1 cell line; Gentamicin 2 μM
  increase rate of the DCF fluorescence intensity: 7.64%
HEI-OC1 cell line; Gentamicin 3 μM
  increase rate of the DCF fluorescence intensity: 12.59%
HEI-OC1 cell line; Gentamicin 4 μM
  increase rate of the DCF fluorescence intensity: 20.35%
HEI-OC1 cell line; as the treatment amount of gentamicin was increased (0-4 μM)
  generation amount of the ROS: increased
HEI-OC1 cell line; gentamicin of 10 μM or more
  cell death: the cells were almost died

## O=C1O[C@H]([C@@H](O)CO)C(O)=C1O [ascorbic acid, reference compound]
HEI-OC1 cell line
  protection of hearing loss (DCF-DA test) as compared to gentamicin only: not verified that when the ascorbic acid was administered, particular protection of hearing loss was shown

## O=C(/C=C/c1ccc(O)c(O)c1)Nc1ccc(O)cc1C(=O)O [AVN, avenanthramide-C]
[1]; 10 μg/kg i.p. 6 and 24 hours before noise 90 dB 8 KHz 6 hours, ABR two weeks after noise, FIG. 8
  lowering of hearing threshold (ABR, click) versus exposure to noise without treatment: ≥ 20 dB
[1]; 10 μg/kg i.p. 6 and 24 hours before noise 95 dB 8 KHz 6 hours, ABR two weeks after noise, FIG. 9
  lowering of hearing threshold (ABR, click) versus exposure to noise without treatment: ≥ 40 dB
[1]; 10 μg/kg i.p. before noise 95 dB 8 KHz 6 hours, ABR two weeks after noise, FIG. 9
  hearing threshold (ABR, click) versus control: almost the same threshold value as the control
[1]; 10 μg/kg intraperitoneally 6 hours and 24 hours before noise (90 dB, 8 KHz, 6 hours), FIG. 7
  hearing threshold (ABR, click) versus exposure to noise without treatment: lower threshold
[1]; 10 μg/kg i.p. before noise 90 dB, FIG. 7
  effect of preserving the hearing threshold (ABR, tone burst): the effect of preserving the hearing threshold was high
[1]; noise 90 dB, ABR two weeks after noise, FIG. 8
  effect of preserving the hearing threshold (ABR, tone burst): the effect of preserving the hearing threshold was high
[1]; noise 95 dB, ABR two weeks after noise, FIG. 9
  effect of preserving the hearing threshold (ABR, tone burst): the effect of preserving the hearing threshold was high
HEI-OC1 cell line; AVN 0.5 μM 3 hr + GM 3 μM
  increase rate of DCF fluorescent intensity: 45.85
HEI-OC1 cell line; AVN 0.5 μM 12 hr + GM 3 μM
  increase rate of DCF fluorescent intensity: 45.12
HEI-OC1 cell line; AVN 0.5 μM 24 hr + GM 3 μM
  increase rate of DCF fluorescent intensity: 34.89
HEI-OC1 cell line; AVN 1 μM alone
  ROS generation rate (DCF-DA): 4.43
HEI-OC1 cell line; AVN 1 μM pretreated 24 hrs + GM 3 μM
  ROS generation rate (DCF-DA): 13.46
HEI-OC1 cell line; AVN only (0.5 μM), Table 3
  increase rate of DCF fluorescent intensity: 32.27
HEI-OC1 cell line; GM 4 μM + AVN 0.1 μM (24 hrs pretreatment)
  increase rate of DCF fluorescent intensity: 7.62
HEI-OC1 cell line; GM 4 μM + AVN 0.2 μM
  increase rate of DCF fluorescent intensity: 5.4
HEI-OC1 cell line; GM 4 μM + AVN 0.4 μM
  increase rate of DCF fluorescent intensity: 5.43
HEI-OC1 cell line; GM 4 μM + AVN 0.6 μM
  increase rate of DCF fluorescent intensity: 5.36
HEI-OC1 cell line; GM 4 μM + AVN 0.8 μM
  increase rate of DCF fluorescent intensity: 1.31
HEI-OC1 cell line; GM 4 μM + AVN 1.0 μM
  increase rate of DCF fluorescent intensity: 1.62
HEI-OC1 cell line; GM 4 μM + AVN 1.5 μM
  increase rate of DCF fluorescent intensity: 2.06
HEI-OC1 cell line; GM 4 μM + AVN 2.0 μM
  increase rate of DCF fluorescent intensity: 1.26
HEI-OC1 cell line; GM 4 μM + AVN 4.0 μM
  increase rate of DCF fluorescent intensity: 1.1
HEI-OC1 cell line; GM 4 μM + AVN 6.0 μM
  increase rate of DCF fluorescent intensity: 0.81
HEI-OC1 cell line; as the avenanthramide treatment time increased (3, 12, 24 hr)
  ROS generated by gentamicin: decreased
HEI-OC1 cell line; avenanthramide 0.1 μM, GM 4 μM
  effect on the damage by gentamicin: did not affect the damage by gentamicin
HEI-OC1 cell line; avenanthramide 0.2 μM, GM 4 μM
  decrease of the amount of ROS as compared to no avenanthramide: ≥ 50%
HEI-OC1 cell line; avenanthramide pretreated for 24 hours
  amount of ROS generated by gentamicin: decreased
HEI-OC1 cell line; treatment of avenanthramide for 24 hours or more
  benefit in reducing the ROS generated by gentamicin: no particular benefit
HEI-OC1 cell line; treatment time of avenanthramide 24 hours or more
  effect of suppressing hearing loss caused by the ROS: up to the same level as a control

## β-glucan [reference compound]
HEI-OC1 cell line
  protection of hearing loss (DCF-DA test) as compared to gentamicin only: not verified that when the β-glucan was administered, particular protection of hearing loss was shown
